# Test results published in patent US20080280943A1, “METHODS AND PACKAGES TO ENHANCE SAFETY WHEN USING IMIQUIMOD TO TREAT CHILDREN DIAGNOSED WITH SKIN DISORDERS” (priority 2007, published 2008).
# Tests used:
# [1] = Safety assessment in the vehicle-controlled MC study (N=323); format: in vivo, human (children aged 2 to 12 years)
# Procedure: (§1) More particularly, the objective is to evaluate the efficacy of imiquimod cream, 5% (imiquimod) for the treatment of molluscum contagiosum (MC) lesions in pediatric subjects when the cream was applied 3 times per week (3×/wk) for up to 16 weeks. The efficacy of imiquimod is evaluated by assessing MC lesion clearance. The primary efficacy parameter is complete clearance of all MC lesions (complete clinical resolution) from treatment initiation to the week 18/efficacy visit. Secondary efficacy parameters include partial clearance, defined as ≧50% reduction from the baseline lesion count, and the change in total lesion count. Time to complete clearance is also compared between treatment groups. The secondary objective is to evaluate the safety of imiquimod. Safety assessments are conducted throughout the study. Safety was assessed through incidence and severity of adverse events (AEs); local skin reactions (LSRs) of erythema, edema, erosion/ulceration, weeping/exudates, scabbing/crusting, and flaking/scaling/dryness; skin quality assessments; vital signs measurements; general physical examinations; hematology laboratory tests; and concomitant medication use.
# This is a randomized, vehicle-controlled, double-blind, parallel group, study that is conducted in children aged 2 to 12 years of age who had ≧2 clinically verified MC lesions. Enrollment is monitored to ensure at least 50% of subjects had at least 5 MC lesions, at least 50% of subjects are under 6 years of age, and a sufficient number of subjects enrolled with periocular lesions. Subjects are randomized 2:1 (imiquimod: vehicle) and apply study cream 3×/wk for up to 16 weeks (or until complete resolution of all MC lesions) to all target MC lesions. […] At the screening/treatment initiation visit, MC lesions and application area locations are recorded on a body diagram. […] At each study visit, MC lesions are counted and recorded, and safety procedures are performed. […] MC lesions are treated 3×/wk for up to 16 weeks, or until determined that all MC lesions are cleared. […]
# [2] = Systemic absorption of imiquimod across affected skin of 22 subjects with extensive MC (serum levels, hematology); format: in vivo, human (subjects aged 2 to 12 years)
# Procedure: Systemic absorption of imiquimod across the affected skin of 22 subjects aged 2 to 12 years with extensive MC involving at least 10% of the total body surface area is observed after single and multiple doses at a dosing frequency of 3 applications per week for 4 weeks. The investigator determines the dose applied, i.e., either 1, 2 or 3 packets per dose, based on the size of the treatment area and the subject's weight. […] Children aged 2-5 years receive doses of 12.5 mg (one packet) or 25 mg (two packets) of imiquimod and have median multiple-dose peak serum drug levels of approximately 0.2 or 0.5 ng/ml, respectively. Children aged 6-12 years receive doses of 12.5 mg, 25 mg, or 37.5 mg (three packets) and have median multiple dose serum drug levels of approximately 0.1, 0.15, or 0.3 ng/ml, respectively. Among the 20 subjects with evaluable laboratory assessments, the median WBC count decreases by 1.4*10^9/L and the median absolute neutrophil count decreases by 1.42*10^9/L.
# [3] = system: molluscum contagiosum (MC) lesions; experiment: Study 1: randomized, vehicle-controlled, double-blind trial in pediatric subjects with molluscum contagiosum, efficacy; format: in vivo, human (pediatric subjects)
# Procedure: Aldara® Cream, commercially available via prescription and manufactured by 3M Health Care Limited, Loughborough LE11 1EP England, and distributed by Graceway Pharmaceuticals, LLC, Bristol, Tenn. 37620, is evaluated in two randomized, vehicle-controlled, double-blind trials involving 702 pediatric subjects with molluscum contagiosum (MC) (470 are exposed to Aldara; median age 5 years, range 2-12 years). Subjects apply Aldara® Cream or vehicle 3 times weekly for up to 16 weeks. Complete clearance (no MC lesions) is assessed at Week 18. […] Similar to the studies conducted in adults, the most frequently reported adverse reaction from 2 studies in children with molluscum contagiosum is application site reaction. Adverse events which occur more frequently in Aldara®-treated subjects as compared with vehicle-treated subjects generally resemble those seen in studies in indications approved for adults and also included otitis media (5% Aldara vs. 3% vehicle) and conjunctivitis (3% Aldara® vs. 2% vehicle). Erythema is the most frequently reported local skin reaction. The severe local skin reactions that are reported by Aidara®-treated subjects in the pediatric studies include erythema (28%), edema (8%), scabbing/crusting (5%), flaking/scaling (5%), erosion (2%) and weeping/exudate (2%).
# as §1
# This is a randomized, vehicle-controlled, double-blind, parallel group, study that is conducted in children aged 2 to 12 years of age who had ≧2 clinically verified MC lesions. Enrollment is monitored to ensure at least 50% of subjects had at least 5 MC lesions, at least 50% of subjects are under 6 years of age, and a sufficient number of subjects enrolled with periocular lesions. Subjects are randomized 2:1 (imiquimod: vehicle) and apply study cream 3×/wk for up to 16 weeks (or until complete resolution of all MC lesions) to all target MC lesions. Subjects who weigh <25 kg apply up to 2 sachets of study cream, while subjects who weigh ≧25 kg apply up to 3 sachets. At the screening/treatment initiation visit, MC lesions and application area locations are recorded on a body diagram. […] At each study visit, MC lesions are counted and recorded, and safety procedures are performed. […]
# [4] = 20 subjects with evaluable laboratory assessments
structure (smiles),measurement,setting,value
"CC(C)Cn1cnc2c(N)nc3ccccc3c21 [imiquimod, 1-isobutyl-1H-imidazo[4,5-c]-quinolin-4-amine]",overall safety conclusion,"[1]; children ages 2 to 12 with MC, dosed 3×/wk for up to 16 weeks",safe
same,subjects discontinued from the treatment period due to AEs,"[1]; none severe in intensity, vehicle 1",2 subjects
same,subjects reporting at least 1 AE considered possibly or probably related to study drug,"[1]; vehicle 19.8%, p=0.013",33.6%
same,decrease in median WBC count,[2]; [4],1.4e+09 L⁻¹
same,decrease in median absolute neutrophil count,[2]; [4],1.42e+09 L⁻¹
same,median multiple-dose peak serum drug level,"[2]; children aged 2-5 years, 12.5 mg (one packet)",approximately 0.2 ng/ml
same,peak serum imiquimod concentrations following both single and multiple doses,"[2]; children, topical imiquimod (summary statement)",< 2 ng/mL
same,Cmax,"[2]; human, in vivo, 25 mg, single person, 2 packets of study drug per dose, read-out: Cmax after multiple dosing",9.66 ng/mL
same,median WBC count decreased by,[2]; summary statement,about 1.4 *109/L
same,median absolute neutrophil count decreased by,[2]; summary statement,about 1.42 *109/L
same,partial clearance rate (≧50% reduction from baseline lesion count) at week 18,"[3]; ITT, 108/217, vehicle 45.3%, p=0.4416",49.8%
same,complete clearance rate (no MC lesions) at Week 18,"[3]; Study 1, ITT, 52/217, cream applied 3 times weekly for up to 16 weeks, vehicle 26% (28/106)",24.0%
same,efficacy versus vehicle cream with respect to complete and partial clearance of MC lesions,[3]; dosed 3×/wk for up to 16 weeks,not statistically significantly more effective than vehicle cream
same,distribution in time to complete clearance versus vehicle,"[3]; generalized Wilcoxon Test, p=0.7830",not significantly different
same,median percent reduction in MC lesions at week 18,[3]; vehicle 37.3%,48.1%
